Data on two compounds can be found in US9101638B2, “Boronic acid derivatives and therapeutic uses thereof” (Rempex Pharmaceuticals, Inc., priority 2013, dated 2015).

Where two headings read alike, the source gives them in different places.

One experiment deals with T1, Neutrophil elastase (Homo sapiens, UniProt P08246).
T1 construct: purchased Calbiochem 324681
T1 sequence (P08246 30-267): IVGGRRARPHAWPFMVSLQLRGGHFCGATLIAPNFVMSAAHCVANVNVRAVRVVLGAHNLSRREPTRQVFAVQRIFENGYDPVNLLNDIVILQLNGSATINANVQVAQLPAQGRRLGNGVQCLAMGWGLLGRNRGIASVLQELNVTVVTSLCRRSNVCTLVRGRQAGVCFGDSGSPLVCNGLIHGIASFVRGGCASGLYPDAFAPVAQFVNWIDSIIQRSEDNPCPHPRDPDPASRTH
As to the kind of experiment: Serine protease inhibition: neutrophil elastase. Type of experiment: biochemical, mammalian. Conditions: Table 8B; read-out: IC50 Neutrophil elastase. The method, boiled down:
(§1)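 Rates calculated from absorbance or fluorescence monitored over 30 min after substrate addition are reported as a fraction of the no-treatment control.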

A further experiment has as its target T2, CathepsinA (Homo sapiens, UniProt P10619).
T2 construct: purchased R&D Systems 1049-SE
T2 sequence (P10619 29-480): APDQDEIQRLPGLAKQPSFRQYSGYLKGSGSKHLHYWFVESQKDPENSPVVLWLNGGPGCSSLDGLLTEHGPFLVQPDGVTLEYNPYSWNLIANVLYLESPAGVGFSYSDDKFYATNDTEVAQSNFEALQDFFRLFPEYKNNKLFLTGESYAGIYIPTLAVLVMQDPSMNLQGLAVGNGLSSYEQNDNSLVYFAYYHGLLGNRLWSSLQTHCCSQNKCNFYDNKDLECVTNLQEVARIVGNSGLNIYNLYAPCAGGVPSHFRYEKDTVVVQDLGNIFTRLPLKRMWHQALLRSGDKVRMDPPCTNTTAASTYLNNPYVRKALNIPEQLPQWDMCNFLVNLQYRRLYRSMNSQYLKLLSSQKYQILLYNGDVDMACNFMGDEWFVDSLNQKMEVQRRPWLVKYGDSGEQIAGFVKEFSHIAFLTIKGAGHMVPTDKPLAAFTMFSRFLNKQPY
As to the kind of experiment: Serine protease inhibition: cathepsin A. The class given is biochemical, mammalian. Conditions: Table 8B; read-out: IC50 CathepsinA. The method, boiled down:
as §1

The next experiment relates to KP1009 (CTX-M-15). Put plainly: Potentiation of tigemonam, strain KP1009. Conditions: minimum BLI concentration inhibiting growth with 4 μg/mL tigemonam.
The target in another experiment is T3, CathepsinG (Homo sapiens, UniProt P08311).
T3 construct: purchased EMD Millipore 219373
T3 sequence (P08311 21-244): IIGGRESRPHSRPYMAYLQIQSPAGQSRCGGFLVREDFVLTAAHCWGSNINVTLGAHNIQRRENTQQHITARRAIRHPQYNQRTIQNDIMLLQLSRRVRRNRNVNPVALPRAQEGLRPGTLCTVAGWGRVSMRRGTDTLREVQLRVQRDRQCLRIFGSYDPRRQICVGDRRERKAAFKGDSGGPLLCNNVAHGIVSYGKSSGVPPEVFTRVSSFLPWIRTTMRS
As to the kind of experiment: Serine protease inhibition: cathepsin G. Type of experiment: biochemical, mammalian. Conditions: Table 8B. The method, boiled down: as §1

The subject of the next experiment is PAM1032/KPC-2. Put plainly: Biapenem potentiation in PAM1032/KPC-2 (MexAB-OprM overexpressed). Type of experiment: cell-based, Pseudomonas aeruginosa. Conditions: BLI potency to decrease biapenem MIC 64-fold, 32 to 0.5 μg/ml; efflux proficient strain. On the procedure: (§2) Efflux of BLIs from Pseudomonas aeruginosa by the MexAB-OprM efflux pump was also evaluated. […] Due to expression of KPC-2 both strains became resistant to biapenem. […] Potency of BLIs to potentiate biapenem in these strains was determined. […] The ratio of MPC64 values for each BLI in PAM1032/KPC-2 (efflux proficient) and PAM1154/KPC-2 (efflux deficient) was determined to generate the Efflux Index (EI).

The next experiment has as its system ec308 (SHV-5). As to the kind of experiment: Potentiation of aztreonam, strain ec308. Type of experiment: cell-based. Conditions: minimum BLI concentration inhibiting growth with 4 μg/mL aztreonam.
The next experiment has as its target KPC-2 (Klebsiella pneumoniae, UniProt Q9F663). Put plainly: Inhibition of nitrocefin cleavage by purified KPC-2. The following applies: nitrocefin reporter substrate, purified enzyme; read-out: Ki (KPC-2, NCF). The class given is biochemical. In outline:
(§3)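 Readout: nitrocefin hydrolysis, A490 recorded every 10 sec over 10 min. Enzyme and inhibitor (varied concentrations) preincubated 10 min, RT, in reaction buffer before substrate addition.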

Experiment [1] addresses T4, Dipeptidyl peptidase 9 (DPP9) (Homo sapiens, UniProt Q86TI2).
T4 construct: purchased BPS Bioscience 80090
As to the kind of experiment: Serine protease inhibition: DPP9. Conditions: Table 8B; read-out: IC50 DPP9. The class given is biochemical, mammalian. The method, boiled down: as §1

The target in a further experiment is T5, Chymase (Homo sapiens, UniProt P23946).
T5 construct: purchased Enzo Lifescience BML-SE281
T5 sequence (P23946 22-247): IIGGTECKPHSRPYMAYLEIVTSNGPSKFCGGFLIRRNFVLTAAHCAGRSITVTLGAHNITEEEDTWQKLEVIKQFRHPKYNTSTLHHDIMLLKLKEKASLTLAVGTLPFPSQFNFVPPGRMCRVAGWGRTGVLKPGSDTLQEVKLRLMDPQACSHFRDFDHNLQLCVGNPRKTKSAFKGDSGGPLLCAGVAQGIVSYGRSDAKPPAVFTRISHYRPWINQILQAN
Put plainly: Serine protease inhibition: chymase. The class given is biochemical, mammalian. Conditions: Table 8A, class symbols; read-out: IC50 Chymase. The method, boiled down: as §1

The next experiment has as its target T6, Thrombin (Homo sapiens, UniProt P00734).
T6 construct: Thrombin; MPBio; 19491880; purchased MPBio 19491880
Put plainly: Serine protease inhibition: thrombin. Type of experiment: biochemical, mammalian. Conditions: Table 8A, class symbols; read-out: IC50 Thrombin. The method, boiled down: as §1

For the next experiment, the system named is PAM1154/KPC-2. As to the kind of experiment: Biapenem potentiation in PAM1154/KPC-2 (MexAB-OprM lacking). The class given is cell-based, Pseudomonas aeruginosa. The method, then:
as §2

Experiment [2] addresses T7, Dipeptidyl peptidase 7 (DPP7) (Homo sapiens, UniProt Q9UHL4).
T7 construct: purchased R&D Systems 3438-SE
Put plainly: Serine protease inhibition: DPP7. The class given is biochemical, mammalian. Conditions: Table 8B; read-out: IC50 DPP7. The method, then: The effect of selected BLIs on the enzymatic activity of some common mammalian serine proteases was evaluated.
50 μl of the diluted enzyme was mixed with 50 μl of inhibitor at various concentrations and 50 μl of corresponding buffer (Table 7). Reaction mixtures were incubated for 10 min at 37° C. Subsequently, 50 μl of corresponding substrate (Table 7) was added and absorbance or fluorescence was monitored for 30 min on SpectraMax M2 plate reader (Molecular Devices). 4-(2-Aminoethyl)benzenesulfonyl fluoride hydrochloride (AEBSF) and leupeptin were used as positive controls. Rates of reaction were calculated and presented relative to “no treatment” control.

Experiment [3] addresses T8, Dipeptidyl peptidase 8 (DPP8) (Homo sapiens, UniProt Q6V1X1).
T8 construct: purchased BPS Bioscience 80080
Put plainly: Serine protease inhibition: DPP8. Type of experiment: biochemical, mammalian. Conditions: Table 8B; read-out: IC50 DPP8. The method, boiled down: as §1

The next experiment concerns EC1010 (CMY-6). The class given is cell-based.
The next experiment concerns the target SHV-12 (Klebsiella pneumoniae, UniProt P0AD64, E235K/G234S/L31Q). Put plainly: Inhibition of nitrocefin cleavage by purified SHV-12. The class given is biochemical. In outline: as §3

KPC-2, sequence (Q9F663 25-293, looked up, species assumed): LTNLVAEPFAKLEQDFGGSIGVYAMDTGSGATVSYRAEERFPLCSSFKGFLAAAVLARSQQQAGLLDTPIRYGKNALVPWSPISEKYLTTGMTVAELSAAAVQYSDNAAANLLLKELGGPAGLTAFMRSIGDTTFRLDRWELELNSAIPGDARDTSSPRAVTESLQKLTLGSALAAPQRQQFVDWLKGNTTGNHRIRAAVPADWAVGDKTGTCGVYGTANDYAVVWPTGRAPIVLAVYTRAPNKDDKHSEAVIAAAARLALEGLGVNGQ
T8 sequence (Q6V1X1 whole entry): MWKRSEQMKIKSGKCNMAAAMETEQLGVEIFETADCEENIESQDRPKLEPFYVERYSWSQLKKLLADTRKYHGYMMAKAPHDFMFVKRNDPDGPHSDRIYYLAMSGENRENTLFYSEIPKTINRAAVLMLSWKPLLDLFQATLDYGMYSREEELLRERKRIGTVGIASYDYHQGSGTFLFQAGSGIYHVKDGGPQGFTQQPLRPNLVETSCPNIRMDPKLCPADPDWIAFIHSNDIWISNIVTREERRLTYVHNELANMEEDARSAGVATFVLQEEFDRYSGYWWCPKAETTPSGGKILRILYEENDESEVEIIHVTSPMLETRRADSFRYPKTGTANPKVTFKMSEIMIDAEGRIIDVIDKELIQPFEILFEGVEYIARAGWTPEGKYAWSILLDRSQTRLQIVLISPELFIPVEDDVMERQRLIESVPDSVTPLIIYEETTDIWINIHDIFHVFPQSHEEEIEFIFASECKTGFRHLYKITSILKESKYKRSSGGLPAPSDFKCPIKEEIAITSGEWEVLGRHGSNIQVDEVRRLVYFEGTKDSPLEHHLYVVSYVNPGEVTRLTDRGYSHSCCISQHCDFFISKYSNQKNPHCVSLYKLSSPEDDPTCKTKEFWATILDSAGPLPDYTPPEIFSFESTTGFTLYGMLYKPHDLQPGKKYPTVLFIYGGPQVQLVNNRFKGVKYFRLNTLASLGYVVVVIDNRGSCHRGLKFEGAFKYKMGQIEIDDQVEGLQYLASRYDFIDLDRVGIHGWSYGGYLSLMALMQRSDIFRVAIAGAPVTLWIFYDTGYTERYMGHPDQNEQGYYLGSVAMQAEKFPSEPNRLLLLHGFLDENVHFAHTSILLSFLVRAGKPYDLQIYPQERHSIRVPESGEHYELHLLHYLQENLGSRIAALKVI
SHV-12, sequence (P0AD64 22-286 L31Q/G234S/E235K): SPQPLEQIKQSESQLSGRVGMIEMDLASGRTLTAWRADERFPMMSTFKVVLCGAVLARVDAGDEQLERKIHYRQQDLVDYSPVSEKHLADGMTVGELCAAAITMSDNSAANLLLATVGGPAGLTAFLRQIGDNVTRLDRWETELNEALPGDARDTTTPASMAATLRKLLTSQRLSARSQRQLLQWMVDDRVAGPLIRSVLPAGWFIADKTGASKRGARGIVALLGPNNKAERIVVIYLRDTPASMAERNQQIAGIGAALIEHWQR
T4 sequence (Q86TI2 whole entry): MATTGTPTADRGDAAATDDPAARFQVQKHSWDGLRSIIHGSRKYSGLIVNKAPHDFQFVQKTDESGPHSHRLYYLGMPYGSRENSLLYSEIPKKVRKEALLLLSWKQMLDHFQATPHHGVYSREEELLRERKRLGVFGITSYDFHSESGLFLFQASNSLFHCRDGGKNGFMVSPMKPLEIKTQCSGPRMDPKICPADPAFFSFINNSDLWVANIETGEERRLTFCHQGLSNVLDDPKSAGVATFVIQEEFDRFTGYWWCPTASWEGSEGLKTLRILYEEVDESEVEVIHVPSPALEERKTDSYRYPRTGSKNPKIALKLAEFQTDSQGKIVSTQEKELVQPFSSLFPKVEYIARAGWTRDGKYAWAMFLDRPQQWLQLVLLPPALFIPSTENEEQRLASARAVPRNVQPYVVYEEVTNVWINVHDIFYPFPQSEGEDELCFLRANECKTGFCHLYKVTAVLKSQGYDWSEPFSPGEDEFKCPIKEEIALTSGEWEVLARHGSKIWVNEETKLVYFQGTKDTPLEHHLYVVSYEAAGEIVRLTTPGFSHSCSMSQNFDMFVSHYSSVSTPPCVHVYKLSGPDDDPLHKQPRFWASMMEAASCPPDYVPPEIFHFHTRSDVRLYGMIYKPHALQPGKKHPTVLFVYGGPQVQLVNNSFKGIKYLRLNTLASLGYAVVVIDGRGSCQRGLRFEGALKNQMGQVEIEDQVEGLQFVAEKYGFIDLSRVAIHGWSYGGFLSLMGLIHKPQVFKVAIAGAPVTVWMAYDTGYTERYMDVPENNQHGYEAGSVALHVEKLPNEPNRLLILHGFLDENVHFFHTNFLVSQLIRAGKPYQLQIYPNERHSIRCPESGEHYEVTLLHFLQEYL

Regarding `[N-]=[N+]=NCC(=O)N[C@H]1Cc2cccc(C(=O)O)c2OB1O` [Compound 8, (R)-3-(2-azidoacetamido)-2-hydroxy-3,4-dihydro-2H-benzo[e][1,2]oxaborinine-8-carboxylic acid], the IC50 at Neutrophil elastase is more than 500 µM; on CathepsinA, 15 to 500 µM; at CathepsinG, less than 15 µM; in [1], more than 500 µM; on Chymase, more than 800 µM; on Thrombin, more than 800 µM. The IC50 in [2] and in [3] was more than 500 µM each time. Moreover, the “TIG MPC4 CTX-M-15 KP1009” value in the experiment on KP1009 (CTX-M-15) is recorded as “X (X = MIC of less than 1 μg/mL)”. Moreover, the “PAM1032/KPC-2 Biapenem MPC64” value in the experiment with PAM1032/KPC-2 is given as “Y (Y = 10 to 40)”. Besides, in the experiment on ec308 (SHV-5), the “AZT MPC4 SHV-5 ec308” value is “X (X = MIC of less than 1 μg/mL)”. Further, the Ki at KPC-2 is more than 0.01 µM; on SHV-12 (nitrocefin reporter substrate, purified enzyme, read-out: Ki (SHV-12, NCF)) it was less than 0.001 µM. The “PAM1154/KPC-2 Biapenem MPC64” value with PAM1154/KPC-2 was “X (key: X = Less than 10; Y = 10 to 40; Z Greater than 40)”. Besides, the “TIG MPC4 CMY-6 EC1010” value in the experiment on EC1010 (CMY-6) was “X (key: X = MIC of less than 1 μg/mL; Y = MIC of 1 μg/mL to 10 μg/mL; Z = MIC of greater than 10 μg/mL)”.
Turning to `CSC(=O)N[C@H]1Cc2cccc(C(=O)O)c2OB1O` [Compound 11, (R)-2-hydroxy-3-(methylthiocarbonylamino)-3,4-dihydro-2H-benzo[e][1,2]oxaborinine-8-carboxylic acid], the IC50 at Neutrophil elastase was more than 500 µM; on CathepsinA it was 15 to 500 µM; at CathepsinG, 15 to 500 µM; in [1], more than 500 µM; at Chymase, more than 800 µM; on Thrombin it was more than 800 µM. Further, the IC50 in experiment [2] and in experiment [3] was more than 500 µM in each case. In the experiment on KP1009 (CTX-M-15), the “TIG MPC4 CTX-M-15 KP1009” value is reported as “Y (Y = MIC of 1 μg/mL to 10 μg/mL)”. For the same compound, the “PAM1032/KPC-2 Biapenem MPC64” value with PAM1032/KPC-2 is given as “Z (Z Greater than 40)”. Also, the “AZT MPC4 SHV-5 ec308” value in the experiment on ec308 (SHV-5) is given as “X (X = MIC of less than 1 μg/mL)”. Also, the Ki at KPC-2 is more than 0.01 µM; at SHV-12, less than 0.001 µM. Besides, in the experiment on PAM1154/KPC-2, the “PAM1154/KPC-2 Biapenem MPC64” value is “X (key: X = Less than 10; Y = 10 to 40; Z Greater than 40)”. Moreover, in the experiment on EC1010 (CMY-6), the “TIG MPC4 CMY-6 EC1010” value is “X (key: X = MIC of less than 1 μg/mL; Y = MIC of 1 μg/mL to 10 μg/mL; Z = MIC of greater than 10 μg/mL)”.
